Experimental data from patent US6531292B1, “Genes and proteins controlling cholesterol synthesis” (The Regents of the University of California, priority 1995, dated 2003).
Values joined by “and” are separate entries in the source; they are usually repeats but may differ in a detail not shown here. Equal values may be shown once. Square brackets hold non-standard residues; d marks the D form. Peptide text beside a SMILES is read from it. Nle = CCCC[C@H](N)C(=O)O

Key:
mammalian HMG-R = details: mammalian cells, previous studies; cited from earlier work
proteasome = details: Jensen et al. 1995; cited from earlier work
hrd mutant yeast strains = assay: Canavanine sensitivity of hrd mutant strains on solid medium; format: cell-based; details: 1.5 μg/ml canavanine, 30° C., one week; versus isogenic parent strain
Method: FIG. 7. Proteasomal phenotypes associate with the hrd2-1 mutant. A) Canavanine sensitivity. Liquid cultures of strains with the indicated mutations, but otherwise isogenic, were spotted onto supplemented minimal medium ([…] of ˜0.5 OD) with or without 1.5 μg/ml canavanine as indicated, and allowed to grow at 30° C. for a week. B) Global ubiquitination. Lysates of the same strains were immunoblotted with affinity-purified anti-ubiquitin antibody to survey the degree of ubiquitination of cellular proteins. The line indicates the position of an 80 kD marker. Equal amounts of protein were loaded in each lane and the transfer efficiency from each lane was identical, as judged by India ink staining. The average increase in the amount of ubiquitin conjugates in the hrd2-1 mutant was approximately threefold over the amount in other strains. C) Complementation of the hrd2-1 mutant by the human TRAP-2 coding region. Strain RHY402 (hrd2-1, Ura^−) was transformed with parent vector pRH98-1, with a centromere plasmid containing the HRD2 gene (pRH482) or with a plasmid that expressed the TRAP-2 coding region from the GAPDH promoter (pRH492). These transformants are noted “vector, HRD2, and TRAP-2”, respectively. Each strain was then streaked on solid medium with 0 (top) or 200 μg/ml (bottom) and allowed to grow at 37° C. […]

[1] = test system: strain expressing 6myc-Hmg2p (RHY244); assay: Lovastatin sensitivity (growth, plating efficiency) of strain expressing 6myc-Hmg2p; format: cell-based, yeast; details: liquid medium, FIG. 1d
6myc-Hmg2p = 6myc-Hmg2p degradation by cycloheximide chase and stationary chase with immunoblotting; format: cell-based, yeast; details: small dose of lovastatin (50 μg/ml) added to cultures
Excerpt: (§1) FIG. 1. 6myc-Hmg2p: an unregulated variant of Hmg2p. A) schematic diagram of the unregulated 6myc-Hmg2p. […] The tagged protein was still capable of catalyzing the reduction of 3-hydroxy-3-methyl glutaryl CoA (HMG-CoA) to mevalonate (MEV), an essential intermediate of cholesterol biosynthesis. B) The degradation of 6myc-Hmg2p was not regulated by the mevalonate pathway. Cells expressing 6myc-Hmg2p (RHY244) or Hmg2p (RHY183) were examined for degradation of each protein by addition of cycloheximide at time zero and subsequent immunoblotting, as described by Hampton and Rine (J Cell Biol 125: 299-312, 1994). In the indicated samples, 50 μg/ml of lovastatin was added along with the cycloheximide at t=0. The 6myc-Hmg2planes (left panel) were immunoblotted using the 9E10 anti-myc antibody, and the Hmg2p lanes (right panel) were immunoblotted with affinity purified anti-Hmg1p protein. Each lane contained lysate from ˜0.2 O.D.600 units of cells. C) Test of 6myc-Hmg2p degradation by “stationary chase.” Log phase (OD600˜0.5) cultures of the strains used in Panel B were allowed to grow for an additional 15 hours at 30° C., and then subjected to lysis and immunoblotting to evaluate degradation of the expressed reductase (Hampton et al., Proc. Natl. Acad. Sci. USA. 93: 828-833, 1996). […]

Hmg2p = target: T1, Hmg2p (Saccharomyces cerevisiae, UniProt P12684); assay: Hmg2p degradation by cycloheximide chase and stationary chase with immunoblotting; format: cell-based, yeast; details: small dose of lovastatin (50 μg/ml) added to cultures
T1 construct: Note the lowered mobility of the 6myc-Hmg2p protein as compare to the native Hmg2p; expressed in transfected cells; host or cells: S. cerevisiae strain RHY183 (hmg1 and hmg2 disrupted; single integrated HMG2 coding region under the GAPDH promoter)
T1 sequence (P12684 1-1045): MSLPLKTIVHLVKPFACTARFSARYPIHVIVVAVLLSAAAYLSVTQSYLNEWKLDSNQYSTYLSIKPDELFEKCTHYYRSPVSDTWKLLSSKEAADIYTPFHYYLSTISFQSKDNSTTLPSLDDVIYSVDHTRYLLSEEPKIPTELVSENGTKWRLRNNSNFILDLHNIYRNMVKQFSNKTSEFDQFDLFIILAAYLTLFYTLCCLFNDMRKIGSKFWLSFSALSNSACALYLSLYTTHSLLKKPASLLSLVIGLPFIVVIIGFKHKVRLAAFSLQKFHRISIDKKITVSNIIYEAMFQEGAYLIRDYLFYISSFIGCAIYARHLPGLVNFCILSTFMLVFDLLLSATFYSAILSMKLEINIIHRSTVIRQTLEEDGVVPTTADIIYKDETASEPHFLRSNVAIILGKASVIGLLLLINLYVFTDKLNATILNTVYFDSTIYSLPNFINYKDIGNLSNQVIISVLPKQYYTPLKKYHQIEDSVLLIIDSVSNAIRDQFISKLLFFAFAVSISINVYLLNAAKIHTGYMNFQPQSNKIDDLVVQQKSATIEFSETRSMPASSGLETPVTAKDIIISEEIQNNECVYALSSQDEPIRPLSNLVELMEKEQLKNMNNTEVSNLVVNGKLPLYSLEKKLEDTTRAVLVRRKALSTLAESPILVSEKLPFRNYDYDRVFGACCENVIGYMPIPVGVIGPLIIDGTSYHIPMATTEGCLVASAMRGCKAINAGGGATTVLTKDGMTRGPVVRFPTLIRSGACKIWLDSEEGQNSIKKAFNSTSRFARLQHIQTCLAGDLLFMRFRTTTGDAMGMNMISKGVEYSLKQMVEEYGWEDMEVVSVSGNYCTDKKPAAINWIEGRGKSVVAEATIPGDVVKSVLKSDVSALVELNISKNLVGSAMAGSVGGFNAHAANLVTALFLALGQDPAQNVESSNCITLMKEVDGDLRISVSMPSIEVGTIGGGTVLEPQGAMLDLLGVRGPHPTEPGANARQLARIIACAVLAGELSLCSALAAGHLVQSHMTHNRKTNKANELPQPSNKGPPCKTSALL
Excerpt: as §1

[2] = test system: strain expressing Hmg2p (RHY183); assay: Lovastatin sensitivity (growth, plating efficiency) of strain expressing Hmg2p; format: cell-based, yeast

CCCC[C@@H](C=O)NC(=O)[C@H](CC(C)C)NC(=O)[C@H](CC(C)C)NC(C)=O [ALLN] (Ac-Leu-Leu-[Nle]-aldehyde)
degradation of mammalian HMG-R (mammalian HMG-R): inhibited
inhibition of the proteasome (proteasome): potent inhibitor

N=C(N)NOCC[C@H](N)C(=O)O [canavanine]
sensitivity of hrd1 or hrd3 alleles to canavanine (hrd mutant yeast strains): no more sensitive
sensitivity of hrd2 mutants to canavanine (hrd mutant yeast strains): heightened sensitivity

CC[C@H](C)C(=O)O[C@H]1C[C@@H](C)C=C2C=C[C@H](C)[C@H](CC[C@@H]3C[C@@H](O)CC(=O)O3)[C@H]21 [lovastatin]
lovastatin sensitivity relative to isogenic strain expressing HMG2 [1]: more sensitive
effect on degradation of 6myc-Hmg2p (6myc-Hmg2p): unaffected
effect on degradation of wild-type Hmg2p (Hmg2p): dramatically stabilized
growth of strain ([2]; hmg1::LYS2 hmg2::HIS3 strain with single integrated HMG2 driven by GAPDH promoter, dose-dependent): blocked
plating efficiency of surviving colonies on lovastatin medium ([2]; non-mutagenized cells expressing wild-type Hmg2p, solid lovastatin-containing medium): 0.1-1% and ~1%
